Source: patent US5786348A, “Methods for preparation and use of 1α,24(S)-dihydroxy vitamin D2” (priority 1995, dated 1998)

Experiments:
[1] = Prophylaxis of postmenopausal bone loss in healthy postmenopausal women; format: in vivo, human
Description: A clinical study is conducted with healthy postmenopausal women having ages between 55 and 60 years. The study involves up to 80 patients randomly divided into two treatment groups, and continues for 24 to 36 months. One treatment group receives a constant dosage of 1α,24(S)-dihydroxy vitamin D2 (u.i.d.; a dose level at or above 1.0 μg/day) and the other receives a matching placebo. The study is conducted as indicated in Example 12 above.

[2] = Dermatological testing: topical ointment in dermatitis patients; format: in vivo, human; settings: ointment 10 μg per gram, twice daily, four to six weeks
Description: Compositions containing 1α,24(S)-dihydroxy vitamin D2 are evaluated for therapeutic efficacy of the composition in the topical treatment of dermatitis (contact and ectopic). The composition evaluated is an ointment containing 10 μg of 1α,24-dihydroxy vitamin D2 per gram of ointment in a petrolatum-almond oil base. […] The patients are treated in an out-patient clinic. They are instructed to use the preparation two times a day.
The ointment is as far as possible applied to a single lesion, or to an area of the disease. The ointment and its container are weighed before the treatment starts and returned with any unused contents for reweighing at the end of the treatment.
The area of the lesion treated is estimated and recorded, and the lesion is photographed as required, together with suitable "control" lesions. The latter are preferably lesions of similar size and stage of development, either in the vicinity of the treated lesion or symmetrically contralateral. Relevant details of the photographic procedure are recorded so as to be reproduced when the lesions are next photographed (distance, aperture, angle, background, etc.). The ointment is applied twice daily and preferably left uncovered. The "control" lesions are left untreated, but if this is not possible, the treatment used on them is noted. […]

[3] = Dose ranging study in postmenopausal osteoporotic women; format: in vivo, human; settings: oral 0.5 to 8.0 μg/day, rising weekly over five weeks
Description: Twenty postmenopausal osteoporotic women are enrolled in an open label study.
On admission to the study, all patients receive instruction on selecting a daily diet containing 400 to 600 mg of calcium. Compliance to this diet is verified at weekly intervals by 24-hour food records and by interviews with each patient.
All patients complete a one-week baseline period, a five-week treatment period, and a one-week post-treatment observation period. During the treatment period, patients orally self-administer 1α,24(S)-dihydroxyvitamin D2 at an initial dose of 0.5 μg/day for the first week, and at successively higher doses of 1.0, 2.0, 4.0, and 8.0 μg/day in each of the following four weeks. All doses are administered before breakfast.
Blood and urine chemistries are monitored on a weekly basis throughout the study. Key blood chemistries include fasting serum levels of calcium, phosphorus, osteocalcin, creatinine, and blood urea nitrogen. Key urine chemistries include 24-hour excretion of calcium, phosphorus, and creatinine.

vitamin D receptor (VDR) = molecular target: T1, vitamin D receptor (VDR) (Homo sapiens, UniProt P11473); assay: Vitamin D-dependent transcriptional activation: growth hormone production in COS-1 cells co-transfected with VDR plasmid and VDRE-GH reporter; format: cell-based; settings: for Total GH Production: averages of duplicate determinations
T1 sequence (P11473 1-427): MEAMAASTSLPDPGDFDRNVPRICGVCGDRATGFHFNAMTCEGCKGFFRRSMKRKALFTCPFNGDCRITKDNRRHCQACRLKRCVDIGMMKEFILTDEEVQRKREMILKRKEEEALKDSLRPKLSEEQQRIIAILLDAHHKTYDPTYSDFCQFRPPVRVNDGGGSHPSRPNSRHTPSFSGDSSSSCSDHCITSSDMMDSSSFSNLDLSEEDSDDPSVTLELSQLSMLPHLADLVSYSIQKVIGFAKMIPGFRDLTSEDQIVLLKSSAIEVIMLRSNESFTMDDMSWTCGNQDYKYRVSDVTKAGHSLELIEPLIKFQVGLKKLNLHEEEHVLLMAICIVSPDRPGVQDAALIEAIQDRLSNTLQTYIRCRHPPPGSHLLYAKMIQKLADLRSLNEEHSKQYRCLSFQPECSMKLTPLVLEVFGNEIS
Description: The biological activity in vitro of chemically synthesized 1α,24(S)-(OH)2 D2 and 1α,24(R)-(OH)2 D2 was measured using a vitamin D-dependent transcriptional activation model system in which a vitamin D receptor (VDR)-expressing plasmid pSG5-hVDR1/3and a plasmid p(CT4)^4 TKGH containing a Growth Hormone (GH)-gene, under the control of a vitamin D-responsive element (VDRE) were co-transfected into Green monkey kidney, COS-1 cells. DNA's for these two vectors were supplied by Dr. Mark Haussler, Department of Biochemistry, University of Arizona, Tucson, Ariz.
Transfected cells were incubated with vitamin D metabolites and growth hormone production was measured.

[4] = inducer molar concentration 5 × 10^-8
[5] = inducer molar concentration 5 × 10^-9
[6] = inducer molar concentration 5 × 10^-10

- Routinely monitored serum parameters [3]: no effect
- Activity in the transcriptional activation system relative to 1α,24(R)-(OH)2 D2 (vitamin D receptor (VDR); compared with the 24(R) epimer): significantly more activity
- Net vitamin D-inducible GH-production (vitamin D receptor (VDR); [4]): 1138 ng/mL
- Total GH Production (vitamin D receptor (VDR); [4]): 1182 ng/mL
- Net vitamin D-inducible GH-production (vitamin D receptor (VDR); [5]): 1306 ng/mL
- Total GH Production (vitamin D receptor (VDR); [5]): 1350 ng/mL
- Net vitamin D-inducible GH-production (vitamin D receptor (VDR); [6]): 381 ng/mL
- Total GH Production (vitamin D receptor (VDR); [6]): 425 ng/mL
SMILES: C=C1/C(=C\C=C2/CCC[C@]3(C)[C@@H]([C@H](C)/C=C/[C@@](C)(O)C(C)C)CC[C@@H]23)C[C@@H](O)C[C@@H]1O [1α,24(S)-(OH)2 D2, 1α,24(S)-dihydroxy vitamin D2]
- Losses in total body calcium, radial or spinal bone densities relative to baseline ([1]; at or above 1.0 μg/day, 24 to 36 months): reduced losses
- Monitored safety parameters ([1]; long-term administration at or above 1.0 μg/day): confirm the safety
- Incidence of hypercalcemia [2]: insignificant incidence
- Lesion severity scores (erythema, scaling, thickness; 0 to 3) ([2]; against control lesions): lower scores than the control lesions
- 24-hour urinary calcium levels [3]: modest increases
- Serum osteocalcin levels [3]: increases
